Assay results reported in patent US20170190744A1 (Vicuron Pharmaceuticals, Inc., priority 2015, published 2017).
Converted amounts (≈) assume the structure as drawn.

Key:
[1] = system: 3797 S aureus clin. Isolate GISA; experiment: MIC (microbiological activity); format: cell-based
G 16440 E coli iperperm = experiment: MIC (microbiological activity); format: cell-based; conditions: repeat determinations
P450 = P450 induction after administration to rats; format: in vivo
Gram-positive pathogen = experiment: Phase II SSTI trial: microbiologic response, all organisms; format: in vivo, human; conditions: microbiologically-evaluable population
Experimental: (§1) Microbiological outcome, a secondary efficacy variable, was assessed in the subpopulation of patients who had microbiologically documented SSTI (i.e., at least one identified baseline pathogen). A microbiologic response was assessed for each Gram-positive pathogen identified at baseline (i.e., eradication, presumed eradication, persistence, presumed persistence). For patients for whom follow-up cultures were not performed, the microbiologic responses for baseline pathogens were presumed on the basis of the clinical response. Microbiologic response by patient at the EOT and FU visits was graded as success (i.e., all Gram-positive organisms eradicated or presumed eradicated) or failure (i.e., at least one Gram-positive organism persisted or presumed to have persisted, multiple pathogens with partial eradication). At both the EOT and FU visits, colonization and superinfection were assessed. At the FU visit, a patient's bacteriological response could also include recurrence.

S. aureus [2] = experiment: Phase II SSTI trial: microbiologic response, S. aureus; format: in vivo, human
Experimental: as §1

[3] = Phase II SSTI trial: safety (adverse events); set-up: species or system human; conditions: in vivo
Experimental: Each patient who received at least one dose of study drug (ITT population) was evaluated for drug safety through monitoring of adverse events (AE), including abnormal clinical laboratory test results and vital signs. AE were rated by the investigator as to their severity (mild, moderate, severe, life-threatening), and by the relationship to the study drug (not related, unlikely related, possibly related, or probably related).

[4] = system: Gram-positive isolates, including MRSA; experiment: Dalbavancin MIC of baseline Gram-positive pathogens (SSTI trial); format: cell-based; conditions: for Dalbavancin MIC, Miscellaneous Streptococcus and nontypeable strains: baseline isolates, MITT
Text: The most common pathogen was S. aureus.

[5] = Pharmacokinetics and renal excretion in healthy subjects; format: in vivo, human; conditions: single 1000 mg IV
Experimental: Blood samples were drawn into heparinized tubes and centrifuged. Plasma was separated and stored frozen at −20° C. until time of assay. Plasma and urine samples were assayed for dalbavancin using validated LC/MS/MS methods. […] The peak concentration (Cmax) values were obtained directly from the observed data. The area under the plasma concentration-time curve (AUC) was calculated using the linear trapezoidal rule. Clearance (CL) was computed as dose/AUC. The elimination half life (t1/2) was estimated by linear regression of the log-linear portion of the log concentration versus time curve. Estimates of the volume of distribution (VZ) was calculated using the regression parameters, while the volume of distribution at steady state (Vss) was calculated from the area under the first moment curve (AUMC) multiplied by the dose and divided by AUC. The cumulative amount of dalbavancin excreted in urine was determined as the integrand of the urine excretion rate (AURC). CLR, or renal clearance, was calculated as the ratio: CLR=AURC/AUC.

S. aureus [6] = experiment: MIC of study organisms (NCCLS microdilution); format: cell-based; conditions: for MBC: Staphylococcus aureus
Experimental: (§2) MICs were determined in MHB by standard NCCLS microdilution techniques. […] All MICs were performed at least in duplicate.

S. pneumoniae [7] = experiment: MIC of study organisms (NCCLS microdilution); format: cell-based; conditions: five pneumococcal organisms
Experimental: as §2

S. pneumoniae [8] = experiment: Murine thigh-infection model; format: in vivo, mice; conditions: for 1 Log Kill mg/kg/72 h / 2 Log Kill mg/kg/72 h: q 72 h regimen; for 1 log kill dose / 2 log kill dose: total dose over 6 days
Experimental: Each point represents the mean of 4 thighs. Five dose levels, ranging 16-fold were used.
Five different doses (two-fold increases) were used. Study against S. aureus utilized total dose (mg/kg/6 d) levels ranging from 30 to 480 mg/kg/6 d. […] Each point represents the mean of 4 thighs.
Each point represents the mean of four thighs.
Each point represents the mean value from 4 thighs. The static dose, and the doses associated with a 1 and 2 log kill were calculated from the parameters estimated by non-linear regression using the Hill equation.

[9] = in vivo
Experimental: Safety was evaluated by the collection and analysis of data on adverse events (AEs), clinical laboratory tests, physical examinations, vital signs, and ECGs.

[10] = both, human, in vivo
Experimental: Male and female subjects between ages 18 and 80 were eligible for enrollment. Subjects had to be within −10% to +50% of ideal body weight for their sex, height, and body frame.
The peak concentrations (Cmax) were obtained directly from the observed data. The area under the plasma concentration-time curve (AUC) were calculated using the linear trapezoidal rule.

S. aureus [11] = experiment: MIC of study organisms (NCCLS microdilution); format: cell-based
[12] = Pharmacokinetics in renal impairment and ESRD (VER001-3, VER001-11, VER001-13)
Text: Clinical Study VER001-13 examined subjects with mild and moderate renal impairment and Clinical Study VER001-11 examined subjects with severe renal impairment and subjects with end-stage renal disease (ESRD). Matched control subjects were enrolled in all studies. […] Subjects with ESRD were dependent on dialysis through the course of the study (3 times weekly).

In the case of `CN[C@H]1C(=O)N[C@@H]2Cc3ccc(cc3)Oc3cc4cc(c3O[C@@H]3O[C@H](C(=O)O)[C@@H](O)[C@H](O)[C@H]3NC(=O)CCCCCCCCC(C)C)Oc3ccc(cc3Cl)[C@@H](O)[C@@H]3NC(=O)[C@H](NC(=O)[C@@H]4NC(=O)[C@@H](NC2=O)c2cc(cc(O)c2Cl)Oc2cc1ccc2O)c1ccc(O)c(c1)-c1c(O[C@H]2O[C@H](CO)[C@@H](O)[C@H](O)[C@@H]2O)cc(O)cc1[C@@H](C(=O)NCCCN(C)C)NC3=O` [Dalbavancin], the MIC [1] is reported as 2 µg/mL (≈ 1.1 µM), the MIC (G 16440 E coli iperperm) is reported as 16 µg/mL (≈ 8.81 µM) and the P450 induction (P450) is reported as “did not induce any P450 activity”. The “eradication/presumed eradication rate at FU, all organisms” value (Gram-positive pathogen; single-dose dalbavancin) was 58%, the “microbiologic success rate at EOT” value (Gram-positive pathogen; single-dose dalbavancin) was 38.5% and the “microbiologic success rate at FU” value (Gram-positive pathogen; single-dose dalbavancin) was 27.3%. For the same compound, the “eradication/presumed eradication rate at FU, all organisms” value (Gram-positive pathogen; two-dose dalbavancin) was 92%, the “microbiologic success rate at EOT” value (Gram-positive pathogen; two-dose dalbavancin) was 72.7% and the “microbiologic success rate at FU” value (Gram-positive pathogen; two-dose dalbavancin) was 72.7%. The “S. aureus eradication rate at FU” value (S. aureus [2]; single-dose dalbavancin) was 50%, the “S. aureus eradication rate at FU” value (S. aureus [2]; two-dose dalbavancin) was 90% and the “premature discontinuation of treatment due to an AE” value [3] was “No dalbavancin-treated patient discontinued treatment prematurely due to an AE”. For the same compound, the “MICs against Gram-positive isolates, including MRSA (range)” value ([4]; baseline isolates of the SSTI trial) was 0.016 to 0.25 mg/L, the “Dalbavancin MIC, Miscellaneous Streptococcus and nontypeable strains” value ([4]; Single dose Dalbavancin (1100 mg) arm) was “(0.016)” and the “Dalbavancin MIC, Miscellaneous Streptococcus and nontypeable strains” value ([4]; Two-dose Dalbavancin (1000/500 mg) arm) was “(0.016)”. It also gave a t1/2 [5] of 9 to 12 days, an MBC (S. aureus [6]; S. aureus strain 307109) of 0.12 µg/mL and an MBC (S. aureus [6]; SA31005) of 0.12 µg/mL. The MIC range (S. aureus [6]; six S. aureus isolates) was 0.06 to 0.12 µg/mL, the MIC range (S. pneumoniae [7]) was 0.004 to 0.03 µg/mL and the “1 Log Kill mg/kg/72 h” value (S. pneumoniae [8]; Mean ± SD of S. pneumoniae strains) was 0.93 ± 0.24 mg/kg/72 h. For the same compound, the “24 h AUC/MIC values lower with every 72 h than every 24 h dosing” value (S. pneumoniae [8]; S. pneumoniae and S. aureus, static dose, 1 and 2 log kill) was 1.3 to 2.4 fold, the “1 Log Kill mg/kg/72 h” value (S. pneumoniae [8]; SP1199, 6 days of therapy) was 0.85 mg/kg/72 h and the “2 Log Kill mg/kg/72 h” value (S. pneumoniae [8]; SP1199, 6 days of therapy) was 0.99 mg/kg/72 h. The “1 Log Kill mg/kg/72 h” value (S. pneumoniae [8]; SP1325, 6 days of therapy) was 0.99 mg/kg/72 h, the “1 Log Kill mg/kg/72 h” value (S. pneumoniae [8]; SP1396, 6 days of therapy) was 0.61 mg/kg/72 h and the “2 Log Kill mg/kg/72 h” value (S. pneumoniae [8]; SP1396, 6 days of therapy) was 0.69 mg/kg/72 h. The “1 log kill dose” value (S. pneumoniae [8]; SP10813, q 12 h) was 2.8 mg/kg, the “2 log kill dose” value (S. pneumoniae [8]; SP10813, q 12 h) was 3.5 mg/kg and the “1 log kill dose” value (S. pneumoniae [8]; SP10813, q 24 h) was 1.54 mg/kg. For the same compound, the “2 log kill dose” value (S. pneumoniae [8]; SP10813, q 24 h) was 1.75 mg/kg, the “1 log kill dose” value (S. pneumoniae [8]; SP10813, q 72 h) was 0.77 mg/kg and the “2 log kill dose” value (S. pneumoniae [8]; SP10813, q 72 h) was 0.82 mg/kg. The “1 Log Kill mg/kg/72 h” value (S. pneumoniae [8]; SP10813, 6 days of therapy) was 0.77 mg/kg/72 h, the “2 Log Kill mg/kg/72 h” value (S. pneumoniae [8]; SP10813, 6 days of therapy) was 0.82 mg/kg/72 h and the “drop in cfu over the 6 day study” value (S. pneumoniae [8]; all strains) was over 4 log10. For the same compound, the “less drug required against pneumococci than S. aureus, based upon 24 h AUC/MIC” value (S. pneumoniae [8]; every 24 h dosing) was 12 to 23 fold, the “free drug 24 h AUC/MIC associated with a static effect” value (S. pneumoniae [8]; every 72 h dosing, 6 days) was 7.2±4.5 and the “free drug AUC/MIC over the 6 days of therapy required for efficacy” value (S. pneumoniae [8]; net static effect, 1 or 2 log kill) was about 100. The “reduction in doses necessary for efficacy in presence of neutrophils” value (S. pneumoniae [8]; normal vs neutropenic mice, 24-hour dosing, not statistically significant) was 1.7- to 2.1 fold, the “average difference of effect on QTc values versus vancomycin group” value ([9]; human) was 7 ms and the “impact on heart rate, atrioventricular conduction or intra-ventricular conduction” value [9] was “did not exhibit any impact”. For the same compound, the AUC ([10]; 500 mg) was 24376 ± 6615 µg·h/mL, the AUC14 ([10]; 1000 mg) was ~22000′ mg · h/L and the AUC42 ([10]; 1000 mg) was 23137 ± 3326 µg·h/mL. For the same compound, the “MBC relative to MIC” value (S. aureus [11]; S. aureus, MBC higher than MIC) was 2 to 4 fold, the MBC (S. aureus [11]; SA25923) was 0.50 µg/mL and the t1/2 ([12]; ESRD Postdialysis, VER001-11, 500 mg) was 14.5 days. The t1/2 ([12]; ESRD Predialysis, VER001-11, 500 mg) was 15.7 days, the t1/2 ([12]; Mild Renal Impairment, VER001-13, 1000 mg) was 16.2 days and the t1/2 ([12]; Moderate Renal Impairment, VER001-13, 1000 mg) was 18 days. It also gave a t1/2 ([12]; Normal Renal Function, VER001-2, 1120 mg) of 6.21 days, a t1/2 ([12]; Normal Renal Function, VER001-11, 500 mg) of 13.9 days and a t1/2 ([12]; Normal Renal Function, VER001-13, 1000 mg) of 17.4 days. For the same compound, the t1/2 ([12]; Severe Renal Impairment, VER001-11, 500 mg) was 18.9 days, the t1/2 ([12]; Severe Renal Impairment, VER001-11, 1000 mg) was 19.5 days and the “increase in concentrations through the first week post-dose vs normal renal function” value ([12]; subjects with severe renal impairment (VER001-11)) was 40%.
